Test results published in US20250025500A1, “PHOSPHATASE INHIBITORS AS NK CELLS MODULATORS FOR THE TREATMENT OF CANCER” (Kanyr Pharma Inc., priority 2021, published 2025).

Test system: NK-92 cells against Reh cells
Assay: NK-92 cytolytic assay against NK resistant Reh target cells
Type: cell-based, Human
Details: 30 μM three days, IL-2 100 IU/mL, 3 h assay
Experimental: Human NK cell line NK-92 was purchased from American Type Culture Collection (ATCC) and cultured in α-MEM Essential Medium (no ribonucleoside and deoxyribonucleoside) supplemented with 0.2 mM Myo-inositol, 0.02 mM Folic Acid, 0.1 mM β-mercaptoethanol, 1% of Non-essential Amino Acids, 1×L-Glutamax, 1% of Penicillin/Streptomycin, 12.5% of heat-inactivated Horse, and 12.5% of heat-inactivated Characterized Fetal Bovine Serum or FBS. The media was supplemented freshly with 200 IU/mL of IL-2 upon cell thawing for one passage and 100 IU/mL of IL-2 for cell expansion. Human tumor cell lines K-562 and Reh were purchased from ATCC and were cultured in RPM11640 Medium supplemented with 1% of Penicillin/Streptomycin and 10% of heat inactivated FBS. HEK293T/17 cells and HCT116 cells were cultured in Dulbecco's Modified Eagle's Medium (DMEM) High Glucose Medium supplemented with 1% of Penicillin/Streptomycin and 10% of FBS. All cell lines were maintained in 5% CO2, 37° C. incubator, except that NK-92 were maintained in 6.5% CO2 incubator at 37° C. […]
NK-92 anti-tumor cytolysis function was assessed by flow cytometry-based analysis. […] Flow cytometry sample acquisition was performed with BDO LSRFortessa™ with a UV laser at Flow Cytometry Core Facility, McGill University, and data was analyzed with FlowJo™ 10.7.1 and summarized with Prism™ 9 (GraphPad™). […]

## 7-bromo-6-phosphono(difluoro-methyl)-3-napthalenonitrile [L598]
  NK-92 cytolysis towards NK resistant target cells Reh: did not improve
